{"source": "patent US8350024B2", "about": "“Sugar derivatives and application of same” (priority 2006, dated 2013)", "origin": "cited, not measured here", "tested_on": "herpes simplex virus type 2", "details": "conventional drug, comparison value"}
{"smiles": "Nc1nc2c(ncn2COCCO)c(=O)[nH]1", "note": "[acyclovir]", "values": [{"measurement": "selection index", "value": "about 800"}]}
